# From patent publication EP4722365A1, “DOUBLE-STRANDED NUCLEOTIDE COMPOUND FOR METABOLIC DISEASES AND USE THEREOF” (Visirna Therapeutics (Suzhou) Co., Ltd., priority 2023, dated 2024)
# What was measured:
# [1] = system: DGAT2; assay: Inhibitory activity of dS319 on the target gene DGAT2 in non-naive Cynomolgus macaque (Example 11); format: in vivo; details: for Average inhibition rate, %: 3mpk subcutaneous on days 1 and 29, liver
# Protocol: In-vivo experiment: The in-vivo experimental designs for subcutaneous injection in non-naive Cynomolgus macaque, the administration and the sample collection method were shown in the table below. The day of administration to non-naive Cynomolgus macaque was defined as day 1, the day before it was day 0, the day after it was day 2, and so on. Each group had 2 animals. On days 1 and 29, the animals were injected subcutaneously with the solvent or 0.5 mL/kg of the test compound.
# On day 0 (0 h) before administration by SC, and days 7, 29, 56 and 99 after administration, the liver sample was collected. Collection method: The animals was fasted for 12-16 hrs before sample collection. Collection of liver biopsy tissue: The collection process would be operated and recorded according to the SOP of the research institution.
# [2] = system: DGAT2; assay: Inhibition rate on target gene DGAT2 mRNA in primary human hepatocytes (PHHs), free uptake; format: cell-based
# Protocol: The test compound was prepared into a 100 µM/200 µM mother liquor with PBS.
# Human hepatocytes (PHHs). PHHs were revived and cultured in InvitroGRO CP medium (BIOIVT article number S0331) containing 10% fetal bovine serum (FBS, Gibco article number 10091148) and 1% penicillin-streptomycin (PS, HyClone article number SV30010).
# PHHs (5.4 × 10^4 cells/well) were inoculated into a 96-well plate, and siRNA was added into the cell while plating. The compound entered the cells through free uptake. […] concentration points (100 nM, 20 nM, 4 nM, 0.8 nM, 0.16 nM, 0.032 nM, and 0.0064 nM) were set for siRNA test, and 2 wells were measured in parallel. At the same time, a compound-free control group containing PBS was set up. The cells were cultured in an incubator at 37°C with 5% CO2.
# 48 hrs later, the medium was removed and the cells were collected for RNA extraction. Total RNA was extracted by using RNeasy® 96 Kit (QIAGEN-74182) according to the instructions for use of the kit. cDNA was synthesized by using HiScript III RT SuperMix for qPCR (+gDNA wiper) (Vazyme article number R323-01) following the instructions.
# The target gen cDNA was detected by qPCR, and the internal reference gene GAPDH cDNA was also detected. 8 µL of prepared PCR reaction solution and 2 µL of sample cDNA were added into a 384 well plate. […]
# [3] = system: DGAT2; assay: In-vitro inhibitory activity test on target gene DGAT2 in Huh7 cells (siRNA transfection, mRNA by qPCR); format: cell-based, human; details: Table 3.3
# Protocol: The test compound was prepared into a 20 µM mother liquor with PBS.
# Huh7 cells. Huh7 cells were cultured in DMEM medium (Gibco article number 11965-092) containing 10% fetal bovine serum (FBS, ExCell Bio article number FSP500), 1% glutamine (GlutaMAX, Gibco article number 35050061), 1% NEAA (gibco article number 11140050), and 1% penicillin-streptomycin (HyClone article number SV30010).
# Huh7 cells (2 × 10^4 cells/well) were inoculated into a 96-well plate, and siRNA was transfected into the cells while plating. […] At the same time, a compound-free control group containing RNAiMAX was set up.
# 24 hrs after transfection, the medium was removed and the cells were collected for RNA extraction. Total RNA was extracted by using RNeasy® 96 Kit (QIAGEN-74182) according to the instructions for use of the kit. cDNA was synthesized by using FastKing RT Kit (with gDNase) (Tiangen-KR116-02) according to the instructions.
# The target cDNA was detected by qPCR, and GAPDH cDNA as an internal control was detected in parallel. 8 µL of prepared PCR reaction solution and 2 µL of sample cDNA were added into a 384 well plate. […]
# The expression level of the target gene mRNA in each sample was calculated by ΔΔCt relative quantitative method. […]
# GraphPad Prism software was used for plotting and analysis, and the inhibition rate was expressed as mean ± SD.
substance,measurement,setting,value
dS319: sense (invAb)*acaccauaGfAfCfuauuugcuua[L96]; anti-sense Vpu*Af*a*GfcAfaauagUfcUfaUfgGfuGf* u,"Average inhibition rate, %",[1]; D7,84.9%
same,"Average inhibition rate, %",[1]; D28,93.2%
same,"Average inhibition rate, %",[1]; D56,89.4%
same,"Average inhibition rate, %",[1]; D99,88%
same,inhibitory activity on the target gene DGAT2,"[1]; conclusion in words, non-naive Cynomolgus macaque",long-term inhibitory activity
same,IC50,[2],0.0623 nM
same,IC50,[3],0.0163 nM
